# Key:
# [1] = system: L1210 murine leukaemia; test: In vitro antiproliferative activity (Microculture Tetrazolium Assay) on L1210; assay type: cell-based; settings: L1210 cells, exposure 4 doubling periods or 48 hours; read-out: IC50, the concentration of cytotoxic agent that inhibits the proliferation of the treated cells by 50%
# Protocol: (§1) Three cell lines were used: • L1210 murine leukaemia • A549 non-small-cell human lung carcinoma • DU145 prostate carcinoma
# (§2) L1210 murine leukaemia was used in vitro. The cells are cultured in RPMI 1640 complete culture medium containing 10% foetal calf serum, 2 mM glutamine, 50 units/ml of penicillin, 50 μg/ml of streptomycin and 10 mM Hepes, pH: 7.4. The cells are distributed on microplates and are exposed to the cytotoxic compounds for 4 doubling periods, or 48 hours. The number of viable cells is then quantified by a colorimetric assay, the Microculture Tetrazolium Assay (J. Carmichael et al., Cancer Res.; 47, 936–942 (1987)). The results are expressed as the IC50, the concentration of cytotoxic agent that inhibits the proliferation of the treated cells by 50%.
# [2] = system: DU145 prostate carcinoma; test: In vitro antiproliferative activity (Microculture Tetrazolium Assay) on DU145; assay type: cell-based; settings: DU 145 cells; read-out: IC50, the concentration of cytotoxic agent that inhibits the proliferation of the treated cells by 50%
# Protocol: as §1, §2
# [3] = system: A549 non-small-cell human lung carcinoma; test: In vitro antiproliferative activity (Microculture Tetrazolium Assay) on A549; assay type: cell-based; settings: A549 cells; read-out: IC50, the concentration of cytotoxic agent that inhibits the proliferation of the treated cells by 50%
# Protocol: as §1, §2
melting point,Compound,IC50 [1],IC50 [2],IC50 [3]
294 °C (dec.),Cn1c(=O)c2c3[nH]c4ccccc4c3c3c(=O)oc(=O)c3c2c1=O,,,
,"Cn1c(=O)c2c3[nH]c4ccccc4c3c3c(=O)n(C)c(=O)c3c2c1=O [Example 2, 2,5-dimethyl-1H-dipyrrolo[3,4-a:3,4-c]carbazole-1,3,4,6(2H,5H,7H)-tetrone]",6.8 µM,5.4 µM,4.7 µM

# Reference: US7151108B2, “[3,4-a:3,4-c]carbazole compounds” (Les Laboratories Servier, priority 2002, dated 2006)
